pIC50: −log10 of the molar value. Where a name gives a salt, the structure may show the parent alone. Read-outs that look alike come from different tables or passages of the source.
Columns and labels:
[1] = test system: Phosphorylated Ribosomal Protein S6 (RPS6); assay: THP-1 RPS6 ELISA Assay; type: cell-based, Human; conditions: THP-1 cells, read-out: PI3Kγ_THP1_RPS6_ELISA IC50
In short: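 Serum-starved THP-1 cells were preincubated with a concentration range of compound for 2 h at 37 °C, then stimulated with 10 nM MCP-1 for 15 min. Phospho-RPS6 in lysates was quantified by ELISA at 450 nm. IC50 came from percent inhibition versus log inhibitor concentration.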

[2] = target: PI3Kγ (p110γ) Recombinant Human Protein (Homo sapiens (Human), UniProt P48736); assay: PI3K-γ Scintillation Proximity Assay; type: biochemical; conditions: read-out: PI3Kγ IC50
In short: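 Recombinant human p110γ assayed at room temperature in 20 mM MOPS pH 6.7, 10 mM MgCl2, 5 mM DTT, 0.03% CHAPS, 2% DMSO, with 20 μM PIP2 and 2 μM ATP plus [γ-33P]ATP. Product captured on WGA SPA beads overnight and counted; IC50 fitted from % of solvent-control activity versus log inhibitor concentration.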

[3] = target: PI3Kδ (p110δ/p85α) Recombinant Human Protein (Homo sapiens (Human), UniProt O00329); assay: PI3Kδ Scintillation Proximity Assay; type: biochemical
In short: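 Recombinant human p110δ/p85α (3.4 nM) with 20 μM PIP2 and 2 μM ATP plus [γ-33P]ATP, in 20 mM MOPS pH 6.7, 10 mM MgCl2, 5 mM DTT, 0.03% CHAPS, 2% DMSO; 120 min at room temperature. Product captured on WGA SPA beads, scintillation counted; IC50 from percent-of-control curves.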

PI3Kγ (p110γ) Recombinant Human Protein, sequence (P48736 whole entry): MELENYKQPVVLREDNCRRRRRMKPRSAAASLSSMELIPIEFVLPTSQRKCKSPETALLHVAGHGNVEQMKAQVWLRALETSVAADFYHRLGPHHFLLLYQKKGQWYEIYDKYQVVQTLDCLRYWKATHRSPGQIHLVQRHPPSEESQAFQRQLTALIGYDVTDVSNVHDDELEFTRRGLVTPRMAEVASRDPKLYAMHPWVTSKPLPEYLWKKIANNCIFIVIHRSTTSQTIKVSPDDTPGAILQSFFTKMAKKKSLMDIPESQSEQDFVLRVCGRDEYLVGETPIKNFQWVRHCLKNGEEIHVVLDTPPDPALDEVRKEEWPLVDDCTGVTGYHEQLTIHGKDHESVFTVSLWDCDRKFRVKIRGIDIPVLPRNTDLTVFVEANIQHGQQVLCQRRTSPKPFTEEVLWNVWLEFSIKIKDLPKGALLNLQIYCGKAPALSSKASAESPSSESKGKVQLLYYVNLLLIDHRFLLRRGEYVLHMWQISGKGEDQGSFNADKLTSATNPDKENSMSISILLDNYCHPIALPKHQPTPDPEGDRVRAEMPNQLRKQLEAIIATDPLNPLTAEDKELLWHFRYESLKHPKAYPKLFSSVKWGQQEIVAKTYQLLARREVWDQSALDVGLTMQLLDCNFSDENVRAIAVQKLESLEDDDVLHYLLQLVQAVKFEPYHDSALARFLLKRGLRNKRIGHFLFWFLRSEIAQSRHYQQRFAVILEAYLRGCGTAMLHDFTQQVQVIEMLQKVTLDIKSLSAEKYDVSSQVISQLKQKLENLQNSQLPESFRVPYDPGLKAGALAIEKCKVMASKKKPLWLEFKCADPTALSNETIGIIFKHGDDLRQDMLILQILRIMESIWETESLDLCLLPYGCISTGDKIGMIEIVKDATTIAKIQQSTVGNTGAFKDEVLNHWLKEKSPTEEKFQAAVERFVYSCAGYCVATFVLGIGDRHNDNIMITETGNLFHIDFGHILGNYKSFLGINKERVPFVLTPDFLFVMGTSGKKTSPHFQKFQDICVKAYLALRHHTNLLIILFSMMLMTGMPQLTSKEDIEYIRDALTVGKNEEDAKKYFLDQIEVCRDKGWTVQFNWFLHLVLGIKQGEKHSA
PI3Kδ (p110δ/p85α) Recombinant Human Protein, sequence (O00329 whole entry): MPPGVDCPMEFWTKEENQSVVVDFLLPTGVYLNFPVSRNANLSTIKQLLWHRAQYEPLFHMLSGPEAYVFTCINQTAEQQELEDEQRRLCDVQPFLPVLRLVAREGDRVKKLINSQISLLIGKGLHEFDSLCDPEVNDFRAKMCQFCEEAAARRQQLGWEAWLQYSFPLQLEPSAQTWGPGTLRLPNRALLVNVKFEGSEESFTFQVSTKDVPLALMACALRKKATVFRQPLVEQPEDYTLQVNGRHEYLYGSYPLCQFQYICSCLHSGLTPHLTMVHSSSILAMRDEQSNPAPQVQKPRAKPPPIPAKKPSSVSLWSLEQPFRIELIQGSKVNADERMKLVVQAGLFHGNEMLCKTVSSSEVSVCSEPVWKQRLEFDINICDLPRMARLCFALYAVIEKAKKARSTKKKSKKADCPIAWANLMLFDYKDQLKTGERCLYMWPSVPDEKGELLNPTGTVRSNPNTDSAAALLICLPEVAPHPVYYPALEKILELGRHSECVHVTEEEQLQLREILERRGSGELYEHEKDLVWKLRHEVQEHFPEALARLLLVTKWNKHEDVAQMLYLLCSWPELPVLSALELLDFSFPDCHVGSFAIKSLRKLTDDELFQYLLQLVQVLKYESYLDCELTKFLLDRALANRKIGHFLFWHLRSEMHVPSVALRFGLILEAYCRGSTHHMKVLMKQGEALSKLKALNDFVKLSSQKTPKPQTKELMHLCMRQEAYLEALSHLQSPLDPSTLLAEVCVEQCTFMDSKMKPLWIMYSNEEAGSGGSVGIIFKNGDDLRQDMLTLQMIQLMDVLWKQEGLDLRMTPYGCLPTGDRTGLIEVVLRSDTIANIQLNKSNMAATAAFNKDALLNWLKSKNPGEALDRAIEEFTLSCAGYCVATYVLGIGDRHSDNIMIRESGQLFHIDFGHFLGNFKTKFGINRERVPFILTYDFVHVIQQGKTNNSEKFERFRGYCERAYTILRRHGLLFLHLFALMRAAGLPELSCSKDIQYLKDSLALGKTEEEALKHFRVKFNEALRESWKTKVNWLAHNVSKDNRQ
PI3Kδ (p110δ/p85α) Recombinant Human Protein, sequence (P27986 whole entry partner): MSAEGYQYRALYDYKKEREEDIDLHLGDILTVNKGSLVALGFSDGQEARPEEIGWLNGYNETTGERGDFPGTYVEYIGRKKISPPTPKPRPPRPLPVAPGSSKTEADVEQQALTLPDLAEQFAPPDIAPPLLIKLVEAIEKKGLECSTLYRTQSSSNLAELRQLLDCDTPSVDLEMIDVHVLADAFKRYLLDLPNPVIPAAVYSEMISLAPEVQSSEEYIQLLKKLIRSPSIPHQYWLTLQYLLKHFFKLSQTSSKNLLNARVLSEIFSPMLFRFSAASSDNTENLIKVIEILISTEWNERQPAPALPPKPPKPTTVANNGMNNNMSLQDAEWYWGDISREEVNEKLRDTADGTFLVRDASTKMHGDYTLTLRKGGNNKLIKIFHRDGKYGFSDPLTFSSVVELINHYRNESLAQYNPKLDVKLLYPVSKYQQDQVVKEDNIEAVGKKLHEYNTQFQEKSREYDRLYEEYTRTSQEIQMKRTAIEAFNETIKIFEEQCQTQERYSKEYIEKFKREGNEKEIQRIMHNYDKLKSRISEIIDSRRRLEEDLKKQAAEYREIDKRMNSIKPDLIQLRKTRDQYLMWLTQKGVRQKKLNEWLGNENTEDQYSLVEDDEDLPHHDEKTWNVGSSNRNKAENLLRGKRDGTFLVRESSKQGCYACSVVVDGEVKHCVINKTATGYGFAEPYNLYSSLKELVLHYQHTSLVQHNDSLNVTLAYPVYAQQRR

pIC50 [2]	pIC50 [3]	pIC50 ([1]; Homo sapiens)	Molecule	pIC50 [1]
> 7.00	5.70 to 6.30	6.00 to 6.30	Cc1ccc(S(=O)(=O)NC2(C#N)CC2)cc1-c1cnc2c(N)ncnn12 [Example 189, 3-(4-aminoimidazo[2,1-f][1,2,4]triazin-7-yl)-N-(1-cyanocyclopropyl)-4-methylbenzenesulfonamide]	–
> 7.00	5.70 to 6.30	< 6.00	CO[C@H]1CC[C@H](NS(=O)(=O)c2ccc(C)c(-c3cnc4c(N)ncnn34)c2)CC1 [Example 70, 3-(4-Aminoimidazo[2,1-f][1,2,4]triazin-7-yl)-N-(trans-4-methoxycyclohexyl)-4-methylbenzenesulfonamide]	–
> 7.00	> 7.00	6.30 to 7.00	Cc1cn2c(-c3cc(S(=O)(=O)N[C@H]4CC[C@H](O)CC4)ccc3C)cnc2c(N)n1 [Example 37, 3-(8-Amino-6-methylimidazo[1,2-a]pyrazin-3-yl)-N-(trans-4-hydroxycyclohexyl)-4-methylbenzenesulfonamide]	–
> 7.00	5.70 to 6.30	< 6.00	Cc1ccc(S(=O)(=O)NCCCO)cc1-c1cnc2c(N)nccn12 [Example 50, 3-(8-Aminoimidazo[1,2-a]pyrazin-3-yl)-N-(3-hydroxypropyl)-4-methylbenzenesulfonamide]	–
> 7.00	6.30 to 7.00	6.30 to 7.00	Cc1ccc(S(C)(=O)=O)cc1-c1cnc2c(N)nc(-c3cccc(OCC#N)c3)cn12 [Example 486, 2-(3-(8-Amino-3-(2-methyl-5-(methylsulfonyl)phenyl)imidazo[1,2-a]pyrazin-6-yl)phenoxy)acetonitrile trifluoroacetate]	–
> 7.00	6.30 to 7.00	6.30 to 7.00	Cc1ccc(S(=O)(=O)NC2CC(F)(F)C2)cc1-c1cnc2c(N)ncnn12 [Example 132, 3-(4-aminoimidazo[2,1-f][1,2,4]triazin-7-yl)-N-(3,3-difluorocyclobutyl)-4-methylbenzenesulfonamide]	–
> 7.00	6.30 to 7.00	6.30 to 7.00	Cc1ccc(S(=O)(=O)NCC2CC(F)(F)C2)cc1-c1cnc2c(N)nc(C(=O)NC3CCC3)cn12 [Example 446, 8-amino-N-cyclobutyl-3-(5-(N-((3,3-difluorocyclobutyl)methyl)sulfamoyl)-2-methylphenyl)imidazo[1,2-a]pyrazine-6-carboxamide trifluoroacetate salt]	–
> 7.00	> 7.00	6.30 to 7.00	Cc1ccc(S(=O)(=O)N2CC3(CCN(C)C3=O)C2)cc1-c1cnc2c(N)nc(C(F)(F)F)nn12 [Example 348, 2-((3-(4-amino-2-(trifluoromethyl)imidazo[2,1-f][1,2,4]triazin-7-yl)-4-methylphenyl)sulfonyl)-6-methyl-2,6-diazaspiro[3.4]octan-5-one]	–
> 7.00	6.30 to 7.00	> 7.00	Cc1ccc(S(=O)(=O)NC23CCC(C(O)c4ccccc4)(CC2)OC3)cc1-c1cnc2c(N)ncnn12 (racemic) [Example 438, 3-(4-Aminoimidazo[1,2-f][1,2,4]triazin-7-yl)-N-(1-(hydroxy(phenyl)methyl)-2-oxabicyclo[2.2.2]octan-4-yl)-4-methylbenzenesulfonamide trifluoroacetate salt (racemic)]	–

The next lines start with the molecule.

Molecule	pIC50 [2]	pIC50 [3]	pIC50 ([1]; Homo sapiens)	pIC50 [1]
Cc1ccc(S(=O)(=O)NC2CCOCC2)cc1-c1cnc2c(N)ncnn12 [Example 68, 3-(4-Aminoimidazo[2,1-f][1,2,4]triazin-7-yl)-4-methyl-N-(tetrahydro-2H-pyrazn-4-yl)benzenesulfonamide]	> 7.00	5.70 to 6.30	–	6.00 to 6.30
O=C(O)C(F)(F)F.[2H]C([2H])([2H])c1ccc(S(=O)(=O)NC23CCC(CO)(C2)C3)cc1-c1cnc2c(N)nc(C)cn12 [Example 383, 3-(8-Amino-6-methylimidazo[1,2-a]pyrazin-3-yl)-N-(4-(hydroxymethyl)bicyclo[2.1.1]hexan-1-yl)-4-(methyl-d3)benzenesulfonamide trifluoroacetate salt]	> 7.00	> 7.00	> 7.00	–
3-[8-Amino-6-(2-fluoro-6-methoxyphenyl)imidazo[1,2-a]pyrazin-3-yl]-N-(trans-4-hydroxycyclohexyl)-4-methylbenzenesulfonamide [Example 34]	> 7.00	6.30 to 7.00	–	6.30 to 7.00
Cc1ccc(S(=O)(=O)NC23CC(c4nccs4)(C2)C3)cc1-c1cnc2c(N)ncnn12 [Example 114, 3-(4-Aminoimidazo[1,2-f][1,2,4]triazin-7-yl)-4-methyl-N-(3-(thiazol-2-yl)bicyclo[1.1.1]pentan-1-yl)benzenesulfonamide trifluoroacetate salt]	> 7.00	6.30 to 7.00	–	6.30 to 7.00
Cc1cc(F)c(S(=O)(=O)N2CCCC(CO)C2)cc1-c1cnc2c(N)nc(C(F)(F)F)cn12 (stereo not drawn) [Example 408, (1-((5-(8-Amino-6-(trifluoromethyl)imidazo[1,2-a]pyrazin-3-yl)-2-fluoro-4-methylphenyl)sulfonyl)piperidin-3-yl)methanol]	> 7.00	6.30 to 7.00	< 6.00	–
Cc1ccc(S(=O)(=O)N[C@H]2CC[C@H](O)CC2)cc1-c1cnc2c(N)nc(-c3ccc(CO)cc3F)cn12 [Example 32, 3-{8-Amino-6-[2-fluoro-4-(hydroxymethyl)phenyl]imidazo[1,2-a]pyrazin-3-yl}-N-(trans-4-hydroxycyclohexyl)-4-methylbenzenesulfonamide]	> 7.00	> 7.00	> 7.00	–
Cc1ccc(S(C)(=O)=O)cc1-c1cnc2c(N)nc(-c3cccc(CC#N)c3)cn12 [Example 474, 2-(3-(8-Amino-3-(2-methyl-5-(methylsulfonyl)phenyl)imidazo[1,2-a]pyrazin-6-yl)phenyl)acetonitrile trifluoroacetate]	> 7.00	6.30 to 7.00	6.30 to 7.00	–
COC(=O)C12CC(NS(=O)(=O)c3ccc(C)c(-c4cnc5c(N)ncnn45)c3)(C1)C2 [Example 88, Methyl 3-(3-(4-aminoimidazo[1,2-f][1,2,4]triazin-7-yl)-4-methylphenylsulfonamido)bicyclo[1.1.1]pentane-1-carboxylate trifluoroacetate salt]	> 7.00	6.30 to 7.00	–	> 7.00
Cc1ccc(S(=O)(=O)NCC2(C)COC2)cc1-c1cnc2c(N)nc(C(F)(F)F)nn12 [Example 318, 3-(4-Amino-2-(trifluoromethyl)imidazo[1,2-f][1,2,4]triazin-7-yl)-4-methyl-N-((3-methyloxetan-3-yl)methyl)benzenesulfonamide trifluoroacetate salt]	> 7.00	6.30 to 7.00	–	> 7.00
Cc1ccc(S(=O)(=O)N[C@H]2CC[C@H](O)CC2)cc1-c1cn2cc(-c3ccccc3F)nc(N)c2n1 [Example 22, 3-[8-Amino-6-(2-fluorophenyl)imidazo[1,2-a]pyrazin-2-yl]-N-(trans-4-hydroxycyclohexyl)-4-methylbenzenesulfonamide]	> 7.00	> 7.00	–	> 7.00
CNC(=O)c1ccc(F)c(-c2cn3c(-c4cc(S(=O)(=O)N[C@H]5CC[C@H](O)CC5)ccc4C)cnc3c(N)n2)c1 [Example 31, 3-[8-Amino-3-(5-{[(trans-4-hydroxycyclohexyl)amino]sulfonyl}-2-methylphenyl)imidazo[1,2-a]pyrazin-6-yl]-4-fluoro-N-methylbenzamide]	> 7.00	> 7.00	< 6.00	–
3-(4-Amino-2-(trifluoromethyl)imidazo[2,1- f][1,2,4]triazin-7-yl)-N-(3- (hydroxymethyl)bicyclo[2.1.1]pentan-1-yl)-4-(methyl- d3)benzenesulfonamide trifluoroacetate salt [Example 420]	> 7.00	6.30 to 7.00	–	6.30 to 7.00
COc1cccc(-c2cn3c(-c4cc(S(=O)(=O)N[C@H]5CC[C@H](O)CC5)ccc4C)cnc3c(N)n2)c1F [Example 30, 3-[8-Amino-6-(2-fluoro-3-methoxyphenyl)imidazo[1,2-a]pyrazin-3-yl]-N-(trans-4-hydroxycyclohexyl)-4-methylbenzenesulfonamide]	> 7.00	> 7.00	> 7.00	–
O=C(O)C(F)(F)F.[2H]C([2H])([2H])c1ccc(S(=O)(=O)NC23CC(CO)(C2)C3)cc1-c1cnc2c(N)nc(C(F)(F)F)cn12 [Example 391, 3-(8-Amino-6-(trifluoromethyl)imidazo[1,2-a]pyrazin-3-yl)-N-(3-(hydroxymethyl)bicyclo[1.1.1]pentan-1-yl)-4-(methyl-d3)benzenesulfonamide trifluoroacetate salt]	> 7.00	6.30 to 7.00	> 7.00	–
Cc1noc(C23CC(NS(=O)(=O)c4ccc(C)c(-c5cnc6c(N)ncnn56)c4)(C2)C3)n1 [Example 94, 3-(4-Aminoimidazo[1,2-f][1,2,4]triazin-7-yl)-4-methyl-N-(3-(3-methyl-1,2,4-oxadiazol-5-yl)bicyclo[1.1.1]pentan-1-yl)benzenesulfonamide trifluoroacetate salt]	> 7.00	6.30 to 7.00	–	6.00 to 6.30

Source: patent publication US10479795B2 (Incyte Corporation, priority 2016, dated 2019)
